Test [1] concerns the target T1, rat FAAH (Rattus norvegicus, UniProt P97612).
T1 sequence (P97612 1-579): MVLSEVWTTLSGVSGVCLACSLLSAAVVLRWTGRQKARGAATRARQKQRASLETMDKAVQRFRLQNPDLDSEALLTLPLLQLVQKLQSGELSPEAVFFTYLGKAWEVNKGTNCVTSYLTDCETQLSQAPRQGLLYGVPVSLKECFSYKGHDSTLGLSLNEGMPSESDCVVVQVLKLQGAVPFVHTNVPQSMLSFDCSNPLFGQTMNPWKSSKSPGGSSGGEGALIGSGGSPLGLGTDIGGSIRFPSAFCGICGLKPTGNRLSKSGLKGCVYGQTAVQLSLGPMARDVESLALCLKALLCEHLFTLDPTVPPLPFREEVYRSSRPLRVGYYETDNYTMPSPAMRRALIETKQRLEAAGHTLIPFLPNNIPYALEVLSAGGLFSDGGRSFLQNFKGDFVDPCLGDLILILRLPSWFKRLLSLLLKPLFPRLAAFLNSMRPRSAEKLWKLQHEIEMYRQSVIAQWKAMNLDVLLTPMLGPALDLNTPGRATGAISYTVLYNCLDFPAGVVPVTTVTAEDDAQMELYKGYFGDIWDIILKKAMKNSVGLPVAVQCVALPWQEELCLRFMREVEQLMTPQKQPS
Nature of the test: Assay Method 2: FAAH assay, 3H-anandamide hydrolysis in homogenate of SK-N-MC cells transfected with rat FAAH. Type of test: biochemical. To be noted: average of results, > = solubility limit or highest concentration tested. The essentials: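 Homogenate of SK-N-MC cells stably transfected with rat FAAH cDNA (G418-selected clones) in pH 9 Tris/EDTA/glycerol/Triton buffer. Incubated with compound and 80 nM final [3H]-anandamide for 1 h at rt. Released [3H]-ethanolamine separated from substrate on activated charcoal filters and counted by scintillation.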

Test [2] deals with T2, FAAH (Homo sapiens, UniProt O00519).
T2 sequence (O00519 1-579): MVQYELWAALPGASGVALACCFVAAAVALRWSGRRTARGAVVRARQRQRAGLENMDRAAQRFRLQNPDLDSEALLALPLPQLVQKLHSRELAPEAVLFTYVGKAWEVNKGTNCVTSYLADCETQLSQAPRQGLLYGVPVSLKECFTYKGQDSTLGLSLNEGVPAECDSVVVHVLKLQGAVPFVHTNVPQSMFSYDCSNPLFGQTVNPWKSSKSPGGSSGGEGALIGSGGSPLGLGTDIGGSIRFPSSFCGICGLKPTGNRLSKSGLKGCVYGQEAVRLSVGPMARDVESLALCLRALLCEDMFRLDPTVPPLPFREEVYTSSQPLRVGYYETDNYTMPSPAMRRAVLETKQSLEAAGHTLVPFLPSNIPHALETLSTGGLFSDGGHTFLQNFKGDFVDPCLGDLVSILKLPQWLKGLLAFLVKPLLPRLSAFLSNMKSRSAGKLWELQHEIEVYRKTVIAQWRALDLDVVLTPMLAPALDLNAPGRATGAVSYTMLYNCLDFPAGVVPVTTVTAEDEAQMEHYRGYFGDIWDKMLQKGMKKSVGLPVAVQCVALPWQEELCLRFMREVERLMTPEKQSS
Nature of the test: Assay Method 1: FAAH assay, 3H-anandamide hydrolysis in homogenate of T84 cells or SK-N-MC cells transfected with human FAAH. It is filed as biochemical. To be noted: average of results, > = solubility limit or highest concentration tested. An outline of the steps:
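Homogenates of T84 cells or of SK-N-MC cells stably transfected with human FAAH (G418-selected) were prepared in pH 9 Tris/EDTA/glycerol/Triton buffer. They were incubated with compound and 80 nM final ^3H-anandamide for 1 h at rt. Released ^3H-ethanolamine was separated on activated charcoal and counted by scintillation.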

Consider `O=C(Nc1ccon1)N1CCN(Cc2cccc(Oc3cccc(Br)c3)c2)CC1` [Example 157, 4-[3-(3-Bromophenoxy)benzyl]-N-isoxazol-3-ylpiperazine-1-carboxamide], for which the IC50 (in general, the midpoint of a concentration-inhibition curve) came to 360 nM in test [1] and 80 nM in test [2].
`O=C(Nc1ccon1)N1CCN(Cc2cccc(Oc3ccc(S(=O)(=O)C(F)(F)F)cc3)c2)CC1` [Example 158, N-Isoxazol-3-yl-4-(3-{4-[(trifluoromethyl)sulfonyl]phenoxy}benzyl)-piperazine-1-carboxamide]: the values for the IC50 in test [1] and in test [2] were 150 nM and 10 nM, respectively.
With `O=C(Nc1ccon1)N1CCN(Cc2cccc(Oc3cccc(OC(F)(F)F)c3)c2)CC1` [Example 159, N-Isoxazol-3-yl-4-{3-[3-(trifluoromethoxy)phenoxy]benzyl}piperazine-1-carboxamide], the IC50 was 300 nM in test [1] and 50 nM in test [2].
For `O=C(Nc1ccon1)N1CCN(Cc2ccc(Cl)c(Cl)c2)CC1` [Example 160, 4-(3,4-Dichlorobenzyl)-N-isoxazol-3-ylpiperazine-1-carboxamide] the same measures were 8000 nM and 3000 nM.
Regarding `O=C(Nc1ccon1)N1CCN(Cc2cccc(Oc3ccc(C(F)(F)F)cc3)c2)CC1` [Example 161, N-isoxazol-3-yl-4-{3-[4-(trifluoromethyl)phenoxy]benzyl}piperazine-1-carboxamide], the IC50 in test [1] came out at 160 nM; in test [2], 4 nM.
Consider `O=C(Nc1ccon1)N1CCN(Cc2cccc(Oc3ccc4ncccc4c3)c2)CC1` [Example 162, N-Isoxazol-3-yl-4-[3-(quinolin-6-yloxy)benzyl]piperazine-1-carboxamide], for which the IC50 in test [1] was 6400 nM; in test [2], 240 nM.
On to `N#Cc1ccc(Oc2cccc(CN3CCN(C(=O)Nc4ccon4)CC3)c2)cc1C(F)(F)F` [Example 163, 4-{3-[4-Cyano-3-(trifluoromethyl)phenoxy]benzyl}-N-isoxazol-3-ylpiperazine-1-carboxamide], for which the IC50 was greater than 10000 nM in test [1] and 1000 nM in test [2].
As for `Cc1cc(NC(=O)N2CCN(Cc3cccc(Oc4ccc(Cl)cc4)c3)CC2)no1` [Example 164, 4-[3-(4-Chlorophenoxy)benzyl]-N-(5-methylisoxazol-3-yl)piperazine-1-carboxamide], the IC50 in test [1] was 7000 nM; in test [2] it was 141 nM.
`O=C(Nc1nnn[nH]1)N1CCN(Cc2cnc3ccccc3c2)CC1` [Example 165, 4-(Quinolin-3-ylmethyl)-N-1H-tetrazol-5-ylpiperazine-1-carboxamide]: the IC50 in test [1] was found to be 6000 nM; in test [2] it was 8000 nM.
Turning to `O=C(Nc1nn[nH]n1)N1CCN(Cc2cccc(Oc3ccc4ccccc4c3)c2)CC1` [Example 166, 4-[3-(Naphthalen-2-yloxy)benzyl]-N-1H-tetrazol-5-ylpiperazine-1-carboxamide], the results for the IC50 in test [1] and in test [2] were 7 nM and 13 nM, respectively.
`O=C(Nc1nn[nH]n1)N1CCN(Cc2ccc(Br)c(Br)c2)CC1` [Example 167, 4-(3,4-Dibromobenzyl)-N-1H-tetrazol-5-ylpiperazine-1-carboxamide]: the IC50 in test [1] was 80 nM; in test [2] it was 340 nM.
Take `O=C(Nc1nn[nH]n1)N1CCN(Cc2ccc(Br)c(F)c2)CC1` [Example 168, 4-(4-Bromo-3-fluorobenzyl)-N-1H-tetrazol-5-ylpiperazine-1-carboxamide]: the IC50 in test [1] came out at 480 nM; in test [2] it was 1200 nM.
Take `O=C(Nc1nn[nH]n1)N1CCN(Cc2cccc(Oc3ccc(F)c(F)c3)c2)CC1` [Example 169, 4-[3-(3,4-Difluorophenoxy)benzyl]-N-1H-tetrazol-5-ylpiperazine-1-carboxamide]: the IC50 in test [1] was determined as 600 nM; in test [2], 610 nM.
On to `N#Cc1ccc(Oc2cccc(CN3CCN(C(=O)Nc4nn[nH]n4)CC3)c2)cc1C(F)(F)F` [Example 170, 4-{3-[4-Cyano-3-(trifluoromethyl)phenoxy]benzyl}-N-1H-tetrazol-5-ylpiperazine-1-carboxamide], for which the IC50 is 1800 nM in test [1] and 1200 nM in test [2].
With `O=C(Nc1nnn[nH]1)N1CCN(Cc2cccc(Oc3ccc(C(F)(F)F)cc3)c2)CC1` [Example 171, N-1H-Tetrazol-5-yl-4-{3-[4-(trifluoromethyl)phenoxy]benzyl}piperazine-1-carboxamide], the IC50 in test [1] was 35 nM; in test [2] it was 200 nM.
Take `O=C(Nc1nnn[nH]1)N1CCN(Cc2cccc(Oc3ccc(SC(F)(F)F)cc3)c2)CC1` [Example 172, N-1H-Tetrazol-5-yl-4-(3-{4-[(trifluoromethyl)sulfanyl]phenoxy}benzyl)-piperazine-1-carboxamide]: the IC50 in test [1] amounted to 10 nM; in test [2] it was 50 nM.
As to `O=C(Nc1nnn[nH]1)N1CCN(Cc2cccc(Oc3cccc(OC(F)(F)F)c3)c2)CC1` [Example 173, N-1H-Tetrazol-5-yl-4-{3-[3-(trifluoromethoxy)phenoxy]benzyl}piperazine-1-carboxamide], the results for the IC50 in test [1] and in test [2] were 200 nM and 225 nM, respectively.
Turning to `O=C(Nc1nnn[nH]1)N1CCN(Cc2cccc(Oc3ccc(Cl)c(Cl)c3)c2)CC1` [Example 174, 4-[3-(3,4-Dichlorophenoxy)benzyl]-N-1H-tetrazol-5-ylpiperazine-1-carboxamide], the figures for the IC50 in test [1] and in test [2] were 30 nM and 100 nM, respectively.
Consider `O=C(Nc1nnn[nH]1)N1CCN(Cc2ccc3ccccc3c2)CC1` [Example 176, 4-(Naphthalen-2-ylmethyl)-N-1H-tetrazol-5-ylpiperazine-1-carboxamide], for which the IC50 was 450 nM in test [1] and 2000 nM in test [2].
Take `O=C(Nc1nn[nH]n1)N1CCN(Cc2ccc(Br)cc2)CC1` [Example 177, 4-(4-Bromo-benzyl)-piperazine-1-carboxylic acid (2H-tetrazol-5-yl)-amide]: the IC50 stood at 1700 nM in test [1] and 5000 nM in test [2].
On to `O=C(Nc1nn[nH]n1)N1CCN(Cc2ccc3cc[nH]c3c2)CC1` [Example 178, 4-(1H-Indol-6-ylmethyl)-piperazine-1-carboxylic acid (2H-tetrazol-5-yl)-amide], for which the half-inhibitory concentration (IC50) in test [1] and in test [2] was greater than 10000 nM each time.
Take `O=C(Nc1nn[nH]n1)N1CCN(Cc2cccc(OCc3ccccc3)c2)CC1` [Example 179, 4-(3-Benzyloxy-benzyl)-piperazine-1-carboxylic acid (2H-tetrazol-5-yl)-amide]: the IC50 in test [1] is 1200 nM; in test [2] it was 1600 nM.
The corresponding values for `O=C(Nc1nn[nH]n1)N1CCN(Cc2cccc(Oc3ccccc3)c2)CC1` [Example 181, 4-(3-Phenoxy-benzyl)-piperazine-1-carboxylic acid (2H-tetrazol-5-yl)-amide] are 1600 nM and 5000 nM.
In the case of `O=C(Nc1nn[nH]n1)N1CCN(Cc2ccc(Cl)c(Cl)c2)CC1` [Example 182, 4-(3,4-Dichloro-benzyl)-piperazine-1-carboxylic acid (2H-tetrazol-5-yl)-amide], the IC50 in test [1] amounted to 340 nM; in test [2], 1700 nM.
In the case of `O=C(Nc1nn[nH]n1)N1CCN(Cc2cc3ccccc3s2)CC1` [Example 183, 4-Benzo[b]thiophen-2-ylmethyl-piperazine-1-carboxylic acid (2H-tetrazol-5-yl)-amide], the IC50 is 430 nM in test [1] and 1400 nM in test [2].
For `O=C(Nc1nn[nH]n1)N1CCN(Cc2cccc(Oc3ccc(F)c(C(F)(F)F)c3)c2)CC1` [Example 185, 4-{3-[4-Fluoro-3-(trifluoromethyl)phenoxy]benzyl}-N-2H-tetrazol-5-ylpiperazine-1-carboxamide], the IC50 in test [1] stood at 440 nM; in test [2] it was 450 nM.
`O=C(Nc1nn[nH]n1)N1CCN(Cc2cccc(Oc3cccc(C(F)(F)F)c3)c2)CC1` [Example 186, N-2H-Tetrazol-5-yl-4-{3-[3-(trifluoromethyl)phenoxy]benzyl}piperazine-1-carboxamide]: the IC50 in test [1] was 160 nM; in test [2] it was 330 nM.

The values above are taken from patent publication US20090062294A1, “HETEROARYL-SUBSTITUTED UREA MODULATORS OF FATTY ACID AMIDE HYDROLASE” (priority 2007, published 2009).
